Data reported in ChEMBL document CHEMBL3352057, “Novel fluorinated pyrrolo[1,2-a]pyrazine-2,6-dione derivatives: synthesis and anticonvulsant evaluation in animal models of epilepsy” (Bioorg Med Chem, 2014).
Activity calls are given as the source filed them. No cut-off for these calls is given here.

What follows are molecules tested on Mus musculus (assay: Anticonvulsant activity in albino CF1 mouse assessed as protection against maximal electroshock-induced seizures at 100 mg/kg, ip measured after 0.25 hr). Settings: not given.
Format: functional, organism-based
Design: dose 100 mg/kg

**Q.** `O=C1NC(=O)[C@H](c2cccc(C(F)(F)F)c2)N2CCCC[C@H]12` was tested. Which Activity did it give?
**A.** inactive

**Q.** For `Cl.O=C1NC(=O)[C@@H](c2cccc(C(F)(F)F)c2)N2CCC[C@H]12`, which Activity is on record?
**A.** Active

**Q.** How did the Activity turn out when `O=C1NC(=O)[C@H](c2cccc(C(F)(F)F)c2)N2CCC[C@H]12` was run?
**A.** inactive

These molecules were tested on Mus musculus (assay: Anticonvulsant activity in albino CF1 mouse assessed as protection against maximal electroshock-induced seizures at 100 mg/kg, ip measured after 0.5 hr). Settings: not given.
Format: functional, organism-based
Design: dose 100 mg/kg

**Q.** Which Activity does the source give for `Cl.O=C1NC(=O)[C@@H](c2cccc(C(F)(F)F)c2)N2CCC[C@H]12` here?
**A.** inactive

**Q.** Which Activity does the source give for `O=C1NC(=O)[C@H](c2cccc(C(F)(F)F)c2)N2CCC[C@H]12` here?
**A.** inactive

What follows are molecules tested on Mus musculus (assay: Anticonvulsant activity in albino CF1 mouse assessed as protection against maximal electroshock-induced seizures at 100 mg/kg, ip measured after 1 hr). Settings: not given.
Format: functional, organism-based
Design: dose 100 mg/kg

**Q.** `O=C1NC(=O)[C@H](c2cccc(C(F)(F)F)c2)N2CCCC[C@H]12` was tested. Which Activity did it give?
**A.** inactive

**Q.** For `Cl.O=C1NC(=O)[C@@H](c2cccc(C(F)(F)F)c2)N2CCC[C@H]12`, which Activity is on record?
**A.** inactive

**Q.** Which Activity does the source give for `O=C1NC(=O)[C@H](c2cccc(C(F)(F)F)c2)N2CCC[C@H]12` here?
**A.** inactive

These molecules were tested on Mus musculus (assay: Anticonvulsant activity in albino CF1 mouse assessed as protection against maximal electroshock-induced seizures at 100 mg/kg, ip measured after 4 hrs). Settings: not given.
Format: functional, organism-based
Design: dose 100 mg/kg

**Q.** Which Activity does the source give for `Cl.O=C1NC(=O)[C@@H](c2cccc(C(F)(F)F)c2)N2CCC[C@H]12` here?
**A.** inactive

**Q.** For `O=C1NC(=O)[C@H](c2cccc(C(F)(F)F)c2)N2CCC[C@H]12`, which Activity is on record?
**A.** inactive

The molecules below were run on Mus musculus (assay: Anticonvulsant activity in albino CF1 mouse assessed as protection against subcutaneous metrazol-induced seizures at 100 mg/kg, ip measured after 0.25 hr). Settings: not given.
Format: functional, organism-based
Design: dose 100 mg/kg

**Q.** How did the Activity turn out when `O=C1NC(=O)[C@H](c2cccc(C(F)(F)F)c2)N2CCCC[C@H]12` was run?
**A.** inactive

**Q.** How did the Activity turn out when `O=C1NC(=O)[C@H](c2cccc(C(F)(F)F)c2)N2CCC[C@H]12` was run?
**A.** inactive

Each molecule was assayed on Mus musculus (assay: Anticonvulsant activity in albino CF1 mouse assessed as protection against subcutaneous metrazol-induced seizures at 100 mg/kg, ip measured after 0.5 hr). Settings: not given.
Format: functional, organism-based
Design: dose 100 mg/kg

**Q.** Which Activity does the source give for `O=C1NC(=O)[C@H](c2cccc(C(F)(F)F)c2)N2CCC[C@H]12` here?
**A.** inactive

The molecules below were run on Mus musculus (assay: Anticonvulsant activity in albino CF1 mouse assessed as protection against subcutaneous metrazol-induced seizures at 100 mg/kg, ip measured after 1 hr). Settings: not given.
Format: functional, organism-based
Design: dose 100 mg/kg

**Q.** How did the Activity turn out when `O=C1NC(=O)[C@H](c2cccc(C(F)(F)F)c2)N2CCCC[C@H]12` was run?
**A.** inactive

**Q.** Which Activity does the source give for `O=C1NC(=O)[C@H](c2cccc(C(F)(F)F)c2)N2CCC[C@H]12` here?
**A.** inactive

What follows are molecules tested on Mus musculus (assay: Anticonvulsant activity in albino CF1 mouse assessed as protection against subcutaneous metrazol-induced seizures at 100 mg/kg, ip measured after 4 hrs). Settings: not given.
Format: functional, organism-based
Design: dose 100 mg/kg

**Q.** `O=C1NC(=O)[C@H](c2cccc(C(F)(F)F)c2)N2CCC[C@H]12` was tested. Which Activity did it give?
**A.** inactive

Each molecule was assayed on Mus musculus (assay: Neurotoxicity in albino CF1 mouse at 100 mg/kg, ip measured after 0.25 hr). Settings: in vivo.
Format: toxicity, organism-based
Design: dose 100 mg/kg, route intraperitoneal

**Q.** Which Activity does the source give for `O=C1NC(=O)[C@H](c2cccc(C(F)(F)F)c2)N2CCCC[C@H]12` here?
**A.** Non-toxic

**Q.** How did the Activity turn out when `Cl.O=C1NC(=O)[C@@H](c2cccc(C(F)(F)F)c2)N2CCC[C@H]12` was run?
**A.** Non-toxic

**Q.** How did the Activity turn out when `O=C1NC(=O)[C@H](c2cccc(C(F)(F)F)c2)N2CCC[C@H]12` was run?
**A.** Non-toxic

Each molecule was assayed on Mus musculus (assay: Neurotoxicity in albino CF1 mouse at 100 mg/kg, ip measured after 0.5 hr). Settings: in vivo.
Format: toxicity, organism-based
Design: dose 100 mg/kg, route intraperitoneal

**Q.** `Cl.O=C1NC(=O)[C@@H](c2cccc(C(F)(F)F)c2)N2CCC[C@H]12` was tested. Which Activity did it give?
**A.** Non-toxic

**Q.** How did the Activity turn out when `O=C1NC(=O)[C@H](c2cccc(C(F)(F)F)c2)N2CCC[C@H]12` was run?
**A.** Non-toxic

The molecules below were run on Mus musculus (assay: Neurotoxicity in albino CF1 mouse at 100 mg/kg, ip measured after 1 hr). Settings: in vivo.
Format: toxicity, organism-based
Design: dose 100 mg/kg, route intraperitoneal

**Q.** With `O=C1NC(=O)[C@H](c2cccc(C(F)(F)F)c2)N2CCCC[C@H]12` as the molecule, how does the Activity read?
**A.** Non-toxic

**Q.** With `Cl.O=C1NC(=O)[C@@H](c2cccc(C(F)(F)F)c2)N2CCC[C@H]12` as the molecule, how does the Activity read?
**A.** Non-toxic

**Q.** With `O=C1NC(=O)[C@H](c2cccc(C(F)(F)F)c2)N2CCC[C@H]12` as the molecule, how does the Activity read?
**A.** Non-toxic

These molecules were tested on Mus musculus (assay: Neurotoxicity in albino CF1 mouse at 100 mg/kg, ip measured after 4 hrs). Settings: in vivo.
Format: toxicity, organism-based
Design: dose 100 mg/kg, route intraperitoneal

**Q.** `Cl.O=C1NC(=O)[C@@H](c2cccc(C(F)(F)F)c2)N2CCC[C@H]12` was tested. Which Activity did it give?
**A.** Non-toxic

**Q.** How did the Activity turn out when `O=C1NC(=O)[C@H](c2cccc(C(F)(F)F)c2)N2CCC[C@H]12` was run?
**A.** Non-toxic

What follows are molecules tested on Mus musculus (assay: Anticonvulsant activity in albino CF1 mouse assessed as protection against 32 mA current-induced seizures at 100 mg/kg, ip measured after 0.25 hr). Settings: not given.
Format: functional, organism-based
Design: dose 100 mg/kg

**Q.** With `O=C1NC(=O)[C@H](c2cccc(C(F)(F)F)c2)N2CCCC[C@H]12` as the molecule, how does the Activity read?
**A.** inactive

**Q.** For `Cl.O=C1NC(=O)[C@@H](c2cccc(C(F)(F)F)c2)N2CCC[C@H]12`, which Activity is on record?
**A.** Active

**Q.** How did the Activity turn out when `O=C1NC(=O)[C@H](c2cccc(C(F)(F)F)c2)N2CCC[C@H]12` was run?
**A.** inactive

These molecules were tested on Mus musculus (assay: Anticonvulsant activity in albino CF1 mouse assessed as protection against 32 mA current-induced seizures at 100 mg/kg, ip measured after 0.5 hr). Settings: not given.
Format: functional, organism-based
Design: dose 100 mg/kg

**Q.** How did the Activity turn out when `Cl.O=C1NC(=O)[C@@H](c2cccc(C(F)(F)F)c2)N2CCC[C@H]12` was run?
**A.** Active

**Q.** Which Activity does the source give for `O=C1NC(=O)[C@H](c2cccc(C(F)(F)F)c2)N2CCC[C@H]12` here?
**A.** inactive

The molecules below were run on Mus musculus (assay: Anticonvulsant activity in albino CF1 mouse assessed as protection against 32 mA current-induced seizures at 100 mg/kg, ip measured after 1 hr). Settings: not given.
Format: functional, organism-based
Design: dose 100 mg/kg

**Q.** `O=C1NC(=O)[C@H](c2cccc(C(F)(F)F)c2)N2CCCC[C@H]12` was tested. Which Activity did it give?
**A.** inactive

**Q.** Which Activity does the source give for `Cl.O=C1NC(=O)[C@@H](c2cccc(C(F)(F)F)c2)N2CCC[C@H]12` here?
**A.** Active

**Q.** Which Activity does the source give for `O=C1NC(=O)[C@H](c2cccc(C(F)(F)F)c2)N2CCC[C@H]12` here?
**A.** inactive

Each molecule was assayed on Mus musculus (assay: Anticonvulsant activity in albino CF1 mouse assessed as protection against 32 mA current-induced seizures at 100 mg/kg, ip measured after 2 hrs). Settings: not given.
Format: functional, organism-based
Design: dose 100 mg/kg

**Q.** For `Cl.O=C1NC(=O)[C@@H](c2cccc(C(F)(F)F)c2)N2CCC[C@H]12`, which Activity is on record?
**A.** inactive

**Q.** How did the Activity turn out when `O=C1NC(=O)[C@H](c2cccc(C(F)(F)F)c2)N2CCC[C@H]12` was run?
**A.** inactive

The molecules below were run on Mus musculus (assay: Anticonvulsant activity in albino CF1 mouse assessed as protection against 32 mA current-induced seizures at 100 mg/kg, ip measured after 4 hrs). Settings: not given.
Format: functional, organism-based
Design: dose 100 mg/kg

**Q.** Which Activity does the source give for `Cl.O=C1NC(=O)[C@@H](c2cccc(C(F)(F)F)c2)N2CCC[C@H]12` here?
**A.** inactive

**Q.** Which Activity does the source give for `O=C1NC(=O)[C@H](c2cccc(C(F)(F)F)c2)N2CCC[C@H]12` here?
**A.** inactive

These molecules were tested on Mus musculus (assay: Neurotoxicity in 32 mA current-induced seizure albino CF1 mouse model at 100 mg/kg, ip measured after 0.25 hr). Settings: in vivo.
Format: toxicity, organism-based
Design: dose 100 mg/kg, route intraperitoneal

**Q.** `O=C1NC(=O)[C@H](c2cccc(C(F)(F)F)c2)N2CCCC[C@H]12` was tested. Which Activity did it give?
**A.** Non-toxic

**Q.** `Cl.O=C1NC(=O)[C@@H](c2cccc(C(F)(F)F)c2)N2CCC[C@H]12` was tested. Which Activity did it give?
**A.** Non-toxic

**Q.** `O=C1NC(=O)[C@H](c2cccc(C(F)(F)F)c2)N2CCC[C@H]12` was tested. Which Activity did it give?
**A.** Non-toxic

The molecules below were run on Mus musculus (assay: Neurotoxicity in 32 mA current-induced seizure albino CF1 mouse model at 100 mg/kg, ip measured after 0.5 hr). Settings: in vivo.
Format: toxicity, organism-based
Design: dose 100 mg/kg, route intraperitoneal

**Q.** How did the Activity turn out when `Cl.O=C1NC(=O)[C@@H](c2cccc(C(F)(F)F)c2)N2CCC[C@H]12` was run?
**A.** Non-toxic

**Q.** How did the Activity turn out when `O=C1NC(=O)[C@H](c2cccc(C(F)(F)F)c2)N2CCC[C@H]12` was run?
**A.** Non-toxic

These molecules were tested on Mus musculus (assay: Neurotoxicity in 32 mA current-induced seizure albino CF1 mouse model at 100 mg/kg, ip measured after 1 hr). Settings: in vivo.
Format: toxicity, organism-based
Design: dose 100 mg/kg, route intraperitoneal

**Q.** How did the Activity turn out when `O=C1NC(=O)[C@H](c2cccc(C(F)(F)F)c2)N2CCCC[C@H]12` was run?
**A.** Non-toxic

**Q.** How did the Activity turn out when `Cl.O=C1NC(=O)[C@@H](c2cccc(C(F)(F)F)c2)N2CCC[C@H]12` was run?
**A.** Non-toxic

**Q.** How did the Activity turn out when `O=C1NC(=O)[C@H](c2cccc(C(F)(F)F)c2)N2CCC[C@H]12` was run?
**A.** Non-toxic

What follows are molecules tested on Mus musculus (assay: Neurotoxicity in 32 mA current-induced seizure albino CF1 mouse model at 100 mg/kg, ip measured after 2 hrs). Settings: in vivo.
Format: toxicity, organism-based
Design: dose 100 mg/kg, route intraperitoneal

**Q.** Which Activity does the source give for `Cl.O=C1NC(=O)[C@@H](c2cccc(C(F)(F)F)c2)N2CCC[C@H]12` here?
**A.** Non-toxic

**Q.** For `O=C1NC(=O)[C@H](c2cccc(C(F)(F)F)c2)N2CCC[C@H]12`, which Activity is on record?
**A.** Non-toxic

These molecules were tested on Mus musculus (assay: Neurotoxicity in 32 mA current-induced seizure albino CF1 mouse model at 100 mg/kg, ip measured after 4 hrs). Settings: in vivo.
Format: toxicity, organism-based
Design: dose 100 mg/kg, route intraperitoneal

**Q.** Which Activity does the source give for `Cl.O=C1NC(=O)[C@@H](c2cccc(C(F)(F)F)c2)N2CCC[C@H]12` here?
**A.** Non-toxic

**Q.** `O=C1NC(=O)[C@H](c2cccc(C(F)(F)F)c2)N2CCC[C@H]12` was tested. Which Activity did it give?
**A.** Non-toxic
